# Like-named read-outs stand apart in the source and are kept apart here.
# Assay: Water solubility test of cannabinoid:glucosamine complexes and pure cannabinoids (HPLC of supernatant)
# Type: physicochemical
# Settings: thermodynamic from solid
# Experimental: If considered necessary, sonication can also be applied. Afterwards, the solution is centrifuged at 3.000 g for 3 minutes and the supernatant is transferred to a HPLC vial. Concentration of dissolved cannabinoids is determined by analysis on an Agilent 1260 Infinity (Santa Clara, CA, USA) HPLC system. The chromatographic method is adapted from the literature (Križman, 2019). In short, the separation is performed on a Phenomenex (Torrance, CA, USA) Luna C18 (2) (octadecyl silica) chromatographic column, with dimensions 150 mm×3 mm i.d., 3 μm particle size, and temperature set at 37° C. Mobile phase is isocratic consisting of water/acetonitrile with a ratio of 9:31 (v/v), with 0.1% formic acid (v/v) and 10 mM ammonium formate, at a flow rate of 0.8 mL/min and injection volume 5 μL. The UV detection wavelength is 275 nm. The concentration of cannabinoids is determined using an external standard method.
# For water solubility studies, 1-1.5 mg of the prepared complex was mixed with 1 mL of distilled water and stirred for 5-10 min, if necessary also sonication was applied. Afterwards the solution was centrifuged at 3.000 g for 3 minutes and the supernatant was transferred to the vials. Concentration of dissolved cannabinoids was determined by HPLC-DAD system (Agilent 1260 Infinity, Santa Clara, CA, USA).
# [1] = 1-1.5 mg sample in 1 mL distilled water, stirred 5-10 min, centrifuged, HPLC, printed as greater-than/less-than bounds, read-out: Water solubility of cannabinoid
solubility (water),SMILES,solubility [1]
,"C=C(C)[C@@H]1CCC(C)=C[C@H]1c1c(O)cc(CCCCC)cc1O [CBD, cannabidiol]",< 1 µg/mL
,"C=C(C)[C@@H]1CCC(C)=C[C@H]1c1c(O)cc(CCCCC)c(C(=O)O)c1O [CBDA, cannabidiolic acid]",< 2 µg/mL
< 1 µg/mL,"CCCCCc1cc(O)c(C/C=C(\C)CCC=C(C)C)c(O)c1 [CBG, cannabigerol]",
